Laboratory results as given in US20230085307A1, “PYRIDAZINONE COMPOUND AND HERBICIDE” (NISSAN CHEMICAL CORPORATION, priority 2019, published 2023).

Key:
green foxtail [1] = experiment: Test Example 4: herbicidal effect by soil treatment (Table 19, symbol G); type: in vivo, green foxtail (Setaria viridis); conditions: AAH 320 g/ha
How it was run: (§1)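 In this soil treatment, the formulated compound reached the seeds only through the soil: seeds were buried about 1.5 cm deep in sterilized diluvial soil, then the diluted emulsion was sprayed over the surface. After three weeks at 25° C. to 30° C. in a greenhouse, effects were graded on criteria from an earlier test.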

barnyard grass [2] = experiment: Test Example 4: herbicidal effect by soil treatment (Table 19, symbol H); type: in vivo, barnyard grass (Echinochloa crus-galli); conditions: AAH 320 g/ha
How it was run: as §1

velvetleaf [3] = experiment: Test Example 4: herbicidal effect by soil treatment (Table 19, symbol M); type: in vivo, velvetleaf (Abutilon theophrasti); conditions: AAH 320 g/ha
How it was run: as §1

windgrass [4] = experiment: Test Example 4: herbicidal effect by soil treatment (Table 19, symbol L); type: in vivo, windgrass (Apera spica-venti); conditions: AAH 320 g/ha
How it was run: as §1

barnyard grass [5] = experiment: Test Example 5: herbicidal effect by foliage application, plastic box (Table 20, symbol H); type: in vivo, barnyard grass (Echinochloa crus-galli); conditions: foliage application, AAH 320 g/ha, three weeks after application
How it was run: (§2)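 Plants were sown into sterilized diluvial soil under about 1.5 cm cover and kept in a greenhouse at 25° C. to 30° C. Fourteen days on, foliage received an even spray of the diluted emulsion. Herbicidal or crop effect was judged three weeks afterwards.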

persian speedwell [6] = experiment: Test Example 4: herbicidal effect by soil treatment (Table 19, symbol R); type: in vivo, Persian speedwell (Veronica persica); conditions: AAH 320 g/ha
How it was run: as §1

velvetleaf [7] = experiment: Test Example 5: herbicidal effect by foliage application, plastic box (Table 20, symbol M); type: in vivo, velvetleaf (Abutilon theophrasti); conditions: foliage application, AAH 320 g/ha, three weeks after application
How it was run: as §2

chickweed [8] = experiment: Test Example 5: herbicidal effect by foliage application, plastic box (Table 20, symbol P); type: in vivo, common chickweed (Stellaria media); conditions: foliage application, AAH 320 g/ha, three weeks after application
How it was run: as §2

southern crabgrass [9] = experiment: Test Example 4: herbicidal effect by soil treatment (Table 19, symbol F); type: in vivo, southern crabgrass (Digitaria ciliaris); conditions: AAH 320 g/ha
How it was run: as §1

Italian ryegrass [10] = experiment: Test Example 4: herbicidal effect by soil treatment (Table 19, symbol K); type: in vivo, Italian ryegrass (Lolium multiflorum); conditions: AAH 320 g/ha
How it was run: as §1

oval-leafed pondweed = experiment: Test Example 2: herbicidal activity, application during weed generation under submerged conditions (Table 17, symbol C); type: in vivo, oval-leafed pondweed (Monochoria vaginalis); conditions: AAH 320 g/ha; application during weed generation, submerged conditions
How it was run: (§3)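 Effect on each weed is rated three weeks post-treatment, using the same scoring criteria as the preceding test. Plants grow from mixed-sown seed in flooded alluvial soil (4 cm water) at 25° C. to 30° C., and are treated at one to two leaves with diluted emulsion dropped onto the water.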

barnyard grass [11] = experiment: Test Example 3: herbicidal effect by foliage application, Wagner pot (Table 18, symbol H); type: in vivo, barnyard grass (Echinochloa crus-galli); conditions: 320 g/ha
How it was run: (§4)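 Plants were sown in alluvial soil held under 0.1–0.5 cm standing water and grown 14 days in a greenhouse at 25–30 °C. An emulsifiable formulation, water-diluted to the set dose, was then sprayed onto the foliage, and effects were scored three weeks later using previously defined criteria.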

blackgrass [12] = experiment: Test Example 5: herbicidal effect by foliage application, plastic box (Table 20, symbol J); type: in vivo, blackgrass (Alopecurus myosuroides); conditions: foliage application, AAH 320 g/ha, three weeks after application
How it was run: as §2

redroot pigweed [13] = experiment: Test Example 4: herbicidal effect by soil treatment (Table 19, symbol N); type: in vivo, redroot pigweed (Amaranthus retroflexus); conditions: AAH 320 g/ha
How it was run: as §1

Italian ryegrass [14] = experiment: Test Example 5: herbicidal effect by foliage application, plastic box (Table 20, symbol K); type: in vivo, Italian ryegrass (Lolium multiflorum); conditions: foliage application, AAH 320 g/ha, three weeks after application
How it was run: as §2

late watergrass = experiment: Test Example 2: herbicidal activity, application during weed generation under submerged conditions (Table 17, symbol A); type: in vivo, late watergrass (Echinochloa oryzicola); conditions: AAH 320 g/ha; application during weed generation, submerged conditions
How it was run: as §3

green foxtail [15] = experiment: Test Example 5: herbicidal effect by foliage application, plastic box (Table 20, symbol G); type: in vivo, green foxtail (Setaria viridis); conditions: foliage application, AAH 320 g/ha, three weeks after application
How it was run: as §2

southern crabgrass [16] = experiment: Test Example 5: herbicidal effect by foliage application, plastic box (Table 20, symbol F); type: in vivo, southern crabgrass (Digitaria ciliaris); conditions: foliage application, AAH 320 g/ha, three weeks after application
How it was run: as §2

lambsquarters [17] = experiment: Test Example 4: herbicidal effect by soil treatment (Table 19, symbol O); type: in vivo, lambsquarters (Chenopodium album); conditions: AAH 320 g/ha
How it was run: as §1

rice flat sedge = experiment: Test Example 3: herbicidal effect by foliage application, Wagner pot (Table 18, symbol E); type: in vivo, rice flat sedge (Cyperus iria); conditions: 320 g/ha
How it was run: as §4

Japanese bulrush = experiment: Test Example 2: herbicidal activity, application during weed generation under submerged conditions (Table 17, symbol B); type: in vivo, Japanese bulrush (Schoenoplectus juncoides); conditions: AAH 320 g/ha; application during weed generation, submerged conditions
How it was run: as §3

redroot pigweed [18] = experiment: Test Example 5: herbicidal effect by foliage application, plastic box (Table 20, symbol N); type: in vivo, redroot pigweed (Amaranthus retroflexus); conditions: foliage application, AAH 320 g/ha, three weeks after application
How it was run: as §2

chickweed [19] = experiment: Test Example 4: herbicidal effect by soil treatment (Table 19, symbol P); type: in vivo, common chickweed (Stellaria media); conditions: AAH 320 g/ha
How it was run: as §1

wild oat [20] = experiment: Test Example 4: herbicidal effect by soil treatment (Table 19, symbol I); type: in vivo, wild oat (Avena fatua); conditions: AAH 320 g/ha
How it was run: as §1

lambsquarters [21] = experiment: Test Example 5: herbicidal effect by foliage application, plastic box (Table 20, symbol O); type: in vivo, lambsquarters (Chenopodium album); conditions: foliage application, AAH 320 g/ha, three weeks after application
How it was run: as §2

Chinese sprangletop = experiment: Test Example 3: herbicidal effect by foliage application, Wagner pot (Table 18, symbol D); type: in vivo, chinese sprangletop (Leptochloa chinensis); conditions: 320 g/ha
How it was run: as §4

persian speedwell [22] = experiment: Test Example 5: herbicidal effect by foliage application, plastic box (Table 20, symbol R); type: in vivo, Persian speedwell (Veronica persica); conditions: foliage application, AAH 320 g/ha, three weeks after application
How it was run: as §2

blackgrass [23] = experiment: Test Example 4: herbicidal effect by soil treatment (Table 19, symbol J); type: in vivo, blackgrass (Alopecurus myosuroides); conditions: AAH 320 g/ha
How it was run: as §1

windgrass [24] = experiment: Test Example 5: herbicidal effect by foliage application, plastic box (Table 20, symbol L); type: in vivo, windgrass (Apera spica-venti); conditions: foliage application, AAH 320 g/ha, three weeks after application
How it was run: as §2

wild oat [25] = experiment: Test Example 5: herbicidal effect by foliage application, plastic box (Table 20, symbol I); type: in vivo, wild oat (Avena fatua); conditions: foliage application, AAH 320 g/ha, three weeks after application
How it was run: as §2

SMILES	G: green foxtail, herbicidal effect rating (green foxtail [1])	H: barnyard grass, herbicidal effect rating (barnyard grass [2])	M: velvetleaf, herbicidal effect rating (velvetleaf [3])	L: windgrass, herbicidal effect rating (windgrass [4])	H: barnyard grass, herbicidal effect (barnyard grass [5])	R: persian speedwell, herbicidal effect rating (persian speedwell [6])	M: velvetleaf, herbicidal effect (velvetleaf [7])	P: chickweed, herbicidal effect (chickweed [8])	F: southern crabgrass, herbicidal effect rating (southern crabgrass [9])	K: Italian ryegrass, herbicidal effect rating (Italian ryegrass [10])	herbicidal effect rating, C: oval-leafed pondweed (oval-leafed pondweed)	herbicidal effect on H (barnyard grass), rating 0-5 (barnyard grass [11])	J: blackgrass, herbicidal effect (blackgrass [12])	N: redroot pigweed, herbicidal effect rating (redroot pigweed [13])	K: Italian ryegrass, herbicidal effect (Italian ryegrass [14])	herbicidal effect rating, A: late watergrass (late watergrass)	G: green foxtail, herbicidal effect (green foxtail [15])	F: southern crabgrass, herbicidal effect (southern crabgrass [16])	O: lambsquarters, herbicidal effect rating (lambsquarters [17])	herbicidal effect on E (rice flat sedge), rating 0-5 (rice flat sedge)	further results
Cc1nn(C)c(=O)c(-c2c(-c3ccccc3OCC(F)(F)F)sc3ccccc23)c1O [1-118]	3 (Herbicidal rate of 40% or more and less than 70%)	4 (Herbicidal rate of 70% or more and less than 90%)	3 (Herbicidal rate of 40% or more and less than 70%)	3 (Herbicidal rate of 40% or more and less than 70%)	2 (Herbicidal rate of 20% or more and less than 40%)	4 (Herbicidal rate of 70% or more and less than 90%)	5 (Herbicidal rate of 90% or more (almost completely withered))	5 (Herbicidal rate of 90% or more (almost completely withered))	1 (Herbicidal rate of 5% or more and less than 20%)	0 (Herbicidal rate of 5% or less (almost no effect))	0 (Herbicidal rate of 5% or less (almost no effect))	4 (Herbicidal rate of 70% or more and less than 90%)	4 (Herbicidal rate of 70% or more and less than 90%)	5 (Herbicidal rate of 90% or more (almost completely withered))	4 (Herbicidal rate of 70% or more and less than 90%)	3 (Herbicidal rate of 40% or more and less than 70%)	5 (Herbicidal rate of 90% or more (almost completely withered))	5 (Herbicidal rate of 90% or more (almost completely withered))	5 (Herbicidal rate of 90% or more (almost completely withered))	2 (Herbicidal rate of 20% or more and less than 40%)	herbicidal effect rating, B: Japanese bulrush (Japanese bulrush): 0 (Herbicidal rate of 5% or less (almost no effect)); N: redroot pigweed, herbicidal effect (redroot pigweed [18]): 5 (Herbicidal rate of 90% or more (almost completely withered)); P: chickweed, herbicidal effect rating (chickweed [19]): 3 (Herbicidal rate of 40% or more and less than 70%); I: wild oat, herbicidal effect rating (wild oat [20]): 3 (Herbicidal rate of 40% or more and less than 70%); O: lambsquarters, herbicidal effect (lambsquarters [21]): 3 (Herbicidal rate of 40% or more and less than 70%); herbicidal effect on D (Chinese sprangletop), rating 0-5 (Chinese sprangletop): 2 (Herbicidal rate of 20% or more and less than 40%); R: persian speedwell, herbicidal effect (persian speedwell [22]): 5 (Herbicidal rate of 90% or more (almost completely withered)); J: blackgrass, herbicidal effect rating (blackgrass [23]): 3 (Herbicidal rate of 40% or more and less than 70%); L: windgrass, herbicidal effect (windgrass [24]): 5 (Herbicidal rate of 90% or more (almost completely withered)); I: wild oat, herbicidal effect (wild oat [25]): 4 (Herbicidal rate of 70% or more and less than 90%)
Cc1nn(C)c(=O)c(-c2c(-c3ccc(OCc4cnc(Cl)s4)cc3)sc3ccccc23)c1O [1-144]	0 (Herbicidal rate of 5% or less (almost no effect))	0 (Herbicidal rate of 5% or less (almost no effect))	0 (Herbicidal rate of 5% or less (almost no effect))	0 (Herbicidal rate of 5% or less (almost no effect))	5 (Herbicidal rate of 90% or more (almost completely withered))	3 (Herbicidal rate of 40% or more and less than 70%)	2 (Herbicidal rate of 20% or more and less than 40%)	5 (Herbicidal rate of 90% or more (almost completely withered))	0 (Herbicidal rate of 5% or less (almost no effect))	3 (Herbicidal rate of 40% or more and less than 70%)	0 (Herbicidal rate of 5% or less (almost no effect))	5 (Herbicidal rate of 90% or more (almost completely withered))	5 (Herbicidal rate of 90% or more (almost completely withered))	0 (Herbicidal rate of 5% or less (almost no effect))	4 (Herbicidal rate of 70% or more and less than 90%)	2 (Herbicidal rate of 20% or more and less than 40%)	4 (Herbicidal rate of 70% or more and less than 90%)	5 (Herbicidal rate of 90% or more (almost completely withered))	0 (Herbicidal rate of 5% or less (almost no effect))	5 (Herbicidal rate of 90% or more (almost completely withered))	herbicidal effect rating, B: Japanese bulrush (Japanese bulrush): 0 (Herbicidal rate of 5% or less (almost no effect)); N: redroot pigweed, herbicidal effect (redroot pigweed [18]): 3 (Herbicidal rate of 40% or more and less than 70%); P: chickweed, herbicidal effect rating (chickweed [19]): 3 (Herbicidal rate of 40% or more and less than 70%); I: wild oat, herbicidal effect rating (wild oat [20]): 0 (Herbicidal rate of 5% or less (almost no effect)); O: lambsquarters, herbicidal effect (lambsquarters [21]): 1 (Herbicidal rate of 5% or more and less than 20%); herbicidal effect on D (Chinese sprangletop), rating 0-5 (Chinese sprangletop): 3 (Herbicidal rate of 40% or more and less than 70%); R: persian speedwell, herbicidal effect (persian speedwell [22]): 5 (Herbicidal rate of 90% or more (almost completely withered)); J: blackgrass, herbicidal effect rating (blackgrass [23]): 1 (Herbicidal rate of 5% or more and less than 20%); L: windgrass, herbicidal effect (windgrass [24]): 5 (Herbicidal rate of 90% or more (almost completely withered)); I: wild oat, herbicidal effect (wild oat [25]): 0 (Herbicidal rate of 5% or less (almost no effect))
